# In patent US6849598B1, “Therapeutic compositions comprising bactericidal/permeability-increasing (BPI) protein products” (XOMA, priority 1995, dated 2005):
# Read-outs that look alike come from different tables or passages of the source.
# Key:
# Assay type in all cases: cell-based
# E. faecium = assay: Antibiotic susceptibility (MIC, Sensititre Trays) with rBPI21 poloxamer formulations; settings: for MIC: Enterococcus faecium, read-out: Minimum Inhibitory Concentration; as to susceptibility interpretation of MIC (superscript): key: clinically resistant (R); intermediate (I); susceptible (S)
# [1] = test system: A. baumannii (formerly A. anitratus); assay: Bactericidal activity in water or broth, CFU after 30 minutes and 3 hours (Example 3)
# Experimental: (§1) The bactericidal activity of therapeutic compositions comprising BPI protein product and heat-treated PLURONIC P103 or heat-treated PLURONIC P104, was evaluated against the S. aureus and A. baumannii clinical isolates of Example 1 and the additional organisms S. pneunoniae (Microscan® ID no. 145) and E. faecium (Microscan® ID no. 15773). Therapeutic compositions comprising 500 μg/mL rBPI21 in a 0.075% (w/v) concentration of either heat-treated PLURONIC P103 or heat-treated PLURONIC P104 were formulated by diluting a 2 mg/mL solution of “non-formulated” rBPI21 or “formulated” rBPI21, with the appropriate amounts of 0.1% heat-treated PLURONIC P103 or heat-treated PLURONIC P104 solutions. Compositions comprising 500 μg/mL non-formulated rBPI21 in water alone (without any poloxamers) and poloxamer control solutions containing only 0.1% heat-treated P103 or heat-treated P104 (and no rBPI21) were also prepared A “formulated” rBPI23 therapeutic composition containing 1 mg/mL rBPI23, 0.1% PLURONIC F68 and 0.002% TWEEN 80 was also tested for comparison.
# (§2) Sterile stock solutions of heat-treated PLURONIC P103 or heat-treated PLURONIC P104 were prepared using the following procedure: (1) making a 0.1% (w/v) solution of the poloxamer in deionized water, (2) heating the solution to a boil, (3) allowing it to cool to room temperature, (4) stirring until the PLURONIC P103 was completely solubilized, and (5) filtering the solution through a 0.22 μm Nalgene filter for sterilization.
# (§3) The S. aureus, E. faecium and A. baumannii bacteria were grown on TSA plates (Remel, Catalog #01-920, Lenexa, Kans.), and the S. pneumoniae were grown on 5% sheep blood agar plates (Remel, Catalog# 01-200, Lenexa, Kans.) for 24 hours. A bacterial stock emulsion was prepared by emulsifying bacterial colonies in sterile deionized water to approximately 2.2 to 3.8×10^8 CFU/mL as measured by a Microscan® Turbidity Meter, and diluting further by 1:10 in water. Assays for rBPI21 therapeutic compositions were conducted in 96-well flat-bottom microtiter plates (Corning, catalog# 25860-96) by adding to each well: 185 μL of TSB (Remel, catalog #08-942, Lenexa, Kans.) or sterile water for injection (Kendall McGaw); 8 μL of the bacterial emulsion; 6.3 μL of the indicated 500 μg/mL rBPI21/poloxamer therapeutic composition (or poloxamer control solution or water alone). The final concentrations of bacteria in each well were about 4 to 7×10^5 CFU/mL. Assays for the rBPI23 therapeutic composition were conducted in the same way, except 178 μL of broth or water and 13 μL of the […] rBPI23 composition were added. The well contents were mixed and the plates were incubated at 37° C. The CFUs in each well were counted at 10^−2 and 10^−4 dilutions after 30 minutes and 3 hours of incubation. Results at 30 minutes and 3 hours, respectively, are shown below in Tables 8 and 9.
# [2] = test system: E. faecium (Microscan® ID no. 15773); assay: as above
# Experimental: as §1, §2, §3
# S. aureus = assay: as above
# Experimental: as §1, §2, §3
# [3] = CSMHB, 16 μg/mL rBPI21 with F68
# [4] = CSMHB, 16 μg/mL rBPI21 with P103
# [5] = CSMHB, 16 μg/mL rBPI21 with P104
# [6] = CSMHB, 16 μg/mL rBPI21 with P105
# [7] = CSMHB, 16 μg/mL rBPI21 with P123
# [8] = Serum, 16 μg/mL rBPI21 with F68
# [9] = Serum, 16 μg/mL rBPI21 with P103
# [10] = Serum, 16 μg/mL rBPI21 with P104
# [11] = Serum, 16 μg/mL rBPI21 with P105
# [12] = Serum, 16 μg/mL rBPI21 with P123
# [13] = broth, Incubation for 3 hours, Control TNTC
# [14] = water, Incubation for 3 hours, Control TNTC
# [15] = broth, Incubation for 30 minutes, Control TNTC / TNTC
# [16] = water, Incubation for 30 minutes, Control TNTC / TNTC
molecule,measurement,setting,value
O=C(N[C@H](CO)[C@H](O)c1ccc([N+](=O)[O-])cc1)C(Cl)Cl [Chloramphenicol],susceptibility interpretation of MIC (superscript),E. faecium; [3],S
same,susceptibility interpretation of MIC (superscript),E. faecium; [4],S
same,susceptibility interpretation of MIC (superscript),E. faecium; [5],S
same,susceptibility interpretation of MIC (superscript),E. faecium; [6],S
same,susceptibility interpretation of MIC (superscript),E. faecium; [7],S
same,susceptibility interpretation of MIC (superscript),"E. faecium; CSMHB, Control (no BPI)",I
same,MIC,E. faecium; [3],< 4 µg/mL
same,MIC,E. faecium; [4],< 4 µg/mL
same,MIC,E. faecium; [5],< 4 µg/mL
same,MIC,E. faecium; [6],< 4 µg/mL
same,MIC,E. faecium; [7],< 4 µg/mL
same,MIC,"E. faecium; CSMHB, Control (no BPI)",16 µg/mL
same,MIC,E. faecium; [8],8 µg/mL
same,MIC,E. faecium; [9],8 µg/mL
same,MIC,E. faecium; [10],8 µg/mL
same,MIC,E. faecium; [11],8 µg/mL
same,MIC,E. faecium; [12],8 µg/mL
same,MIC,"E. faecium; Serum, Control (no BPI)",8 µg/mL
same,susceptibility interpretation of MIC (superscript),E. faecium; [8],S
same,susceptibility interpretation of MIC (superscript),E. faecium; [9],S
same,susceptibility interpretation of MIC (superscript),E. faecium; [10],S
same,susceptibility interpretation of MIC (superscript),E. faecium; [11],S
same,susceptibility interpretation of MIC (superscript),E. faecium; [12],S
same,susceptibility interpretation of MIC (superscript),"E. faecium; Serum, Control (no BPI)",S
"rBPI21: expression product of DNA encoding amino acid 1 to approximately 193 or 199 of BPI holoprotein, cysteine 132 substituted with alanine (protein, UniProt P17213 32-224, looked up, variant C132A) VNPGVVVRISQKGLDYASQQGTAALQKELKRIKIPDYSDSFKIKHLGKGHYSFYSMDIREFQLPSSQISMVPNVGLKFSISNANIKISGKWKAQKRFLKMSGNFDLSIEGMSISADLKLGSNPTSGKPTITASSCSSHINSVHVHISKSKVGWLIQLFHKKIESALRNKMNSQVCEKVTNSVSSELQPYFQTL",CFUs,"[1]; A. anitratus, broth, Incubation for 30 minutes, Control 44 / 41",24 10000 CFUs
same,CFUs,"[1]; A. anitratus, broth, Incubation for 30 minutes, Control TNTC / TNTC",TNTC
same,CFUs,"[1]; A. anitratus, water, Incubation for 30 minutes, Control 16 / 17",0 10000 CFUs
same,CFUs,"[1]; A. anitratus, water, Incubation for 30 minutes, Control TNTC / TNTC",73 100 CFUs
same,CFUs,[1]; [13],58 100 CFUs
same,CFUs,[1]; [14],0 100 CFUs
same,CFUs,"[2]; broth, Incubation for 30 minutes, Control 68 / 38",89 10000 CFUs
same,CFUs,[2]; [15],TNTC
same,CFUs,[2]; [13],TNTC
same,CFUs,"[2]; water, Incubation for 30 minutes, Control 37 / 35",1 10000 CFUs
same,CFUs,[2]; [16],50 100 CFUs
same,CFUs,[2]; [14],1 100 CFUs
same,CFUs,"S. aureus; broth, Incubation for 30 minutes, Control 65 / 59",57 10000 CFUs
same,CFUs,S. aureus; [15],TNTC
same,CFUs,S. aureus; [13],TNTC
same,CFUs,"S. aureus; water, Incubation for 30 minutes, Control 54 / 63",2 10000 CFUs
same,CFUs,S. aureus; [16],315 100 CFUs
same,CFUs,S. aureus; [14],12 100 CFUs
